Experimental data: US10662150B2, “Sulfonic acid salt composition and use thereof for color stabilization” (L. BRÜGGEMANN GMBH & CO. KG, priority 2016, dated 2020)

Assay: Aqueous solubility according to OECD 105

Compound | Solubility in water at 23° C. [%]
2-hydroxy-2-sulfonatoacetic acid disodium salt | 7
O=C([O-])C(O)S(=O)(=O)[O-].[Zn+2] (centres unmarked) [Example 1, Zinc-Salt of 2-Hydroxy-2-Sulfonatoacetic Acid] | 39
